According to patent US20020006447A1, “Anti-chlamydia agent” (Mitsui Norin Co., Ltd., priority 1998, published 2002):

System: C. trachomatis
Test: C. trachomatis inclusion body formation in HeLa 229 cells after pre-incubation with single catechins (Example 2)
Assay type: cell-based, Chlamydia trachomatis
Conditions: incubated for 90 minutes at 37° C.
Procedure: As test Chlamydia was used C. trachomatis strain. Chlamydia capable of forming 10^4 inclusion bodies was incubated at 37° C. for 90 minutes in a SPG solution containing (−)-epicatechin gallate or (−)-epigallocatechin gallate in various concentratIons. After completion of the incubation, each solution was inoculated onto Hela 229 cell cultivated by monolayer culture and adsorbed by centrifugation at 1,500 rpm for 60 minutes. Thereafter, the inoculum was removed and culture medium for Chlamydia (Eagle Minimum Essential Culture Medium containing 1 μg/ml cycloheximide) was added and cultivation was performed at 37° C. for 72 hours. After completion of cultivation, the culture medium was removed and the cells were fixed with methanol and then stained with FITC-labeled anti-C. trachomatis monoclonal antibody, followed by counting the number of inclusion bodies of C. trachomatis.

Row | Molecule | concentration that completely inhibited the growth of C. trachomatis
1 | O=C(O[C@@H]1Cc2c(O)cc(O)cc2O[C@@H]1c1ccc(O)c(O)c1)c1cc(O)c(O)c(O)c1 [(−)-epicatechin gallate] | 0.8 mg/mL
2 | (−)-epigallocatechin gallate | 1.6 mg/mL
